Several values for one entry are separate records, joined by “and”; a condition that tells them apart may be missing. Equal values may be shown once.
Tests used:
Format in all cases: biochemical
CDK1/CyclinB (h) = CDK1/CyclinB (h) (Homo sapiens, UniProt P06493); experiment: CDK1/CyclinB human kinase assay (FRET); conditions: for IC50: read-out: CDK1 pIC50 (converted)
Experimental: (§1) The in vitro inhibition of a panel of kinases was assessed using either the scintillation proximity assay (SPA) as described by Cook, N. D. et al., Advances in Experimental Medicine and Biology (1991), 36; p. 525-528; or the Fluorescence Resonance Energy Transfer (FRET) technology as described by Rodems, S. M. et al., Assay Drug Develop. Technol. (2002), 1; p. 9-19.
In the FRET technology the activity of the kinase of interest is measured using an appropriate substrate that is labeled with two fluorophores (coumarin and fluorescein). Phosphorylation is determined using a developing reagent comprising a protease that recognizes and cleaves nonphosphorylated peptides. Cleavage will disturb the FRET between the fluorescein and coumarin on the peptide. Uncleaved, phosphorylated peptides maintain the FRET signal. A ratiometric readout of the donor emission over the acceptor emission quantitates the reaction process.
(§2) All kinases are pre-diluted to a 10× working concentration prior to addition into the assay. The composition of the dilution buffer for each kinase is detailed below.
In a final reaction volume of 10 μl, CDK1/CyclinB (h) (0.2 μg/ml) is incubated with 50 mM Hepes pH 7.5, 10 mM MgCl2, 1 mM EGTA, 0.01% Brij-35, 2 μM Z'lyte Ser/Thr peptide 12 and 10 μM ATP (Invitrogen's FRET assay). After incubation of 60 minutes at room temperature, the reaction is stopped by addition of 5 μL development reagent containing protease mix. After 60 minutes room temperature the development reaction is stopped by adding 5 μl stop solution. The plate is then read in fluorescence plate reader with excitation: 390 nm and dual emission: 460 and 538 nm. Emission ratio is determined to the formula=Emission signal intensity at 460 nm/Emission signal intensity at 538 nm.

AuroraB (h) = AuroraB (h) (Homo sapiens, UniProt Q96GD4); experiment: Aurora-B human kinase assay (SPA); conditions: for IC50: read-out: AuroraB pIC50 (converted)
AuroraB (h), sequence (Q96GD4 whole entry): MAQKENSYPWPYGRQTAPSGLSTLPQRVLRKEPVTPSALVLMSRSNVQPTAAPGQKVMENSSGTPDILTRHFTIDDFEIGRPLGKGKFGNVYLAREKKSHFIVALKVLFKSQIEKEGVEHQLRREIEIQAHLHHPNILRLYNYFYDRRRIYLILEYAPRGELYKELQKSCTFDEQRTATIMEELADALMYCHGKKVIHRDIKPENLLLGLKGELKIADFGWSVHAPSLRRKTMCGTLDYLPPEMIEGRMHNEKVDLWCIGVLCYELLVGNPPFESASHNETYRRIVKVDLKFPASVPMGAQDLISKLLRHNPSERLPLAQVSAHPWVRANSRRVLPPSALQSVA
Experimental: as §1
(§3) In the SPA technology the activity of the kinase of interest is measured using an appropriate biotinylated substrate that is incubated with the aforementioned kinase protein in the presence of (^33P) radiolabeled ATP. (^33P) Phosporylation of the substrate is subsequently measured through binding of the phosphorylated substrate to streptavidine coated beads that are based on the scintillant poly(vinyl toluene) (PVT-Beads). The scintillation intensity is detected by imaging on Leadseeker.
as §2
In a final reaction volume of 30 μl, AuroraB (h) (0.5 μg/ml) is incubated with 60 mM Hepes pH 7.5, 3 mM MgCl2, 3 mM MnCl2, 3 μM Na3VO4, 0.05 mg/ml PEG, 2 mM DTT, 3 μM Biotin-[…]-OH, 0.5 μM ATP and 2.2 nM [γ-^33P-ATP] (6.8 μCi/ml). After incubation of 60 minutes at room temperature, the reaction is stopped by addition of 40 μL of stop solution containing 8.7 mM EDTA, BSA 0.17%, 0.17% Triton X-100, 5 mg/ml SPA beads (GE-healthcare). The plate is centriguged and read for Scintillation imaging on Leadseeker.

GSK3β (h) = GSK3β (h) (Homo sapiens, UniProt P49841); experiment: GSK-3β human kinase assay (SPA); conditions: for IC50: read-out: GSK3B pIC50 (converted)
GSK3β (h), sequence (P49841 whole entry): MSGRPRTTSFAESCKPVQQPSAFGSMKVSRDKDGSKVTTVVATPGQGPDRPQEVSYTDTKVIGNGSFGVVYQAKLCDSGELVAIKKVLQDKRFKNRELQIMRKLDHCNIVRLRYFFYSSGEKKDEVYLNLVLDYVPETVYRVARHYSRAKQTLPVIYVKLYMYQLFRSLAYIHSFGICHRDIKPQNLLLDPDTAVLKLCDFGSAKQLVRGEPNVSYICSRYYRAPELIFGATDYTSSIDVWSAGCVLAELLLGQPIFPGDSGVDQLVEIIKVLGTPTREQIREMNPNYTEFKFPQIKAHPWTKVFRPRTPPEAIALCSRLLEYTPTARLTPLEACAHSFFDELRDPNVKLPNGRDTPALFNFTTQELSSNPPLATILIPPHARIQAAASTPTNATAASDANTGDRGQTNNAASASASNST
Experimental: as §1, §3, §2
In a final reaction volume of 30 μl, GSK3β (h) (1 μg/ml) is incubated with 25 mM Tris pH 7.4, 10 mM MgCl2, 1 mM DTT, 1 μM peptide Biotin-KRREILSRRPSYR-OH, 1 μM ATP and 2 nM [γ-^33P-ATP] (6.0 μCi/ml). After incubation of 60 minutes at room temperature, the reaction is stopped by addition of […] of stop solution containing 8.7 mM EDTA, BSA 0.17%, 0.17% Triton X-100, 6.25 mg/ml SPA beads (GE-healthcare). The plate is centriguged and read for Scintillation imaging on Leadseeker.

PLK4 (h) = PLK4 (h) (Homo sapiens, UniProt O00444); experiment: PLK-4 human kinase assay (SPA); conditions: for IC50: read-out: PLK4 pIC50 (converted)
PLK4 (h), sequence (O00444 whole entry): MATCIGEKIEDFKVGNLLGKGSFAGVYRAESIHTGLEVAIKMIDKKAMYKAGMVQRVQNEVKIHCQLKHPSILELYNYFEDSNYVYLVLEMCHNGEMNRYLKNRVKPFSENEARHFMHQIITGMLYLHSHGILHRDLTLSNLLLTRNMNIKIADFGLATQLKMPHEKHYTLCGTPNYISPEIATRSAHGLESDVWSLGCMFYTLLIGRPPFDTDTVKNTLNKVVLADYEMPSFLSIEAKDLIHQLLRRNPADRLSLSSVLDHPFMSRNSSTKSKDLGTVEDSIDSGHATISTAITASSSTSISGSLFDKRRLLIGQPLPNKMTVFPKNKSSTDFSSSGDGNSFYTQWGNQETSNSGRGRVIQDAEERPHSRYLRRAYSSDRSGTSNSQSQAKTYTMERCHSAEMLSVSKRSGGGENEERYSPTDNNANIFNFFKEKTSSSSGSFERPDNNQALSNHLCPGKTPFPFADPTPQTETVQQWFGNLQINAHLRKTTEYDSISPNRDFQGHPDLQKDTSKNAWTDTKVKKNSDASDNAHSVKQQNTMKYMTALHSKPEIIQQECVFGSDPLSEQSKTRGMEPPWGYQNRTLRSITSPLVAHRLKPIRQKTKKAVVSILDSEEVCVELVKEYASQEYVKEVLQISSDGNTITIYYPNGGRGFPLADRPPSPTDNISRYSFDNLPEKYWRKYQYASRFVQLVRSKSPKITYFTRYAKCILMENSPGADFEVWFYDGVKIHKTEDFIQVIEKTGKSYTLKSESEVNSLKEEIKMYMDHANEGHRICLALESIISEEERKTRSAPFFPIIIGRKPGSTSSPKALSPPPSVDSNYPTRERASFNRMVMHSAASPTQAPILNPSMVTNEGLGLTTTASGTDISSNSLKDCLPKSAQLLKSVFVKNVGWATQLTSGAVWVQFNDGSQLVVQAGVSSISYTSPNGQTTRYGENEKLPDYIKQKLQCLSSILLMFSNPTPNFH
Experimental: as §1, §3, §2
In a final reaction volume of 30 μl PLK4 (h) (19 μg/ml) is incubated with 50 mM Hepes pH 8.0, 10 mM MgCl2, 50 mM NaCl, 1 mM NaF, 1 mM DTT, 10 μM of peptide Biotin-RPRGQRDSSYYWE-OH, 1 μM ATP and 2 nM [γ-^33P-ATP] (6.0 μCi/ml). After incubation of 60 minutes at room temperature, the reaction is stopped by addition of 40 μl, of stop solution containing 8.7 mM EDTA, BSA 0.17%, 0.17% Triton X-100, 1.7 mg/ml SPA beads (GE-healthcare). The plate is centriguged and read for Scintillation imaging on Leadseeker.

CDK1/CyclinB (h), sequence (P06493 whole entry): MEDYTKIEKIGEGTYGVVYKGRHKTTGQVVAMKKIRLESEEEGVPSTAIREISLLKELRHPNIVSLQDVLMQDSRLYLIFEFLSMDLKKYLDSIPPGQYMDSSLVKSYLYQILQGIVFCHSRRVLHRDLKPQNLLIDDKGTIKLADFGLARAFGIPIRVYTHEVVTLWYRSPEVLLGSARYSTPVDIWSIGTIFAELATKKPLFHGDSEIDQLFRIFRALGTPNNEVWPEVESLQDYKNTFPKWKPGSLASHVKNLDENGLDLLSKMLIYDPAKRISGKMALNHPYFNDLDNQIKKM
CDK1/CyclinB (h), sequence (P14635 whole entry partner): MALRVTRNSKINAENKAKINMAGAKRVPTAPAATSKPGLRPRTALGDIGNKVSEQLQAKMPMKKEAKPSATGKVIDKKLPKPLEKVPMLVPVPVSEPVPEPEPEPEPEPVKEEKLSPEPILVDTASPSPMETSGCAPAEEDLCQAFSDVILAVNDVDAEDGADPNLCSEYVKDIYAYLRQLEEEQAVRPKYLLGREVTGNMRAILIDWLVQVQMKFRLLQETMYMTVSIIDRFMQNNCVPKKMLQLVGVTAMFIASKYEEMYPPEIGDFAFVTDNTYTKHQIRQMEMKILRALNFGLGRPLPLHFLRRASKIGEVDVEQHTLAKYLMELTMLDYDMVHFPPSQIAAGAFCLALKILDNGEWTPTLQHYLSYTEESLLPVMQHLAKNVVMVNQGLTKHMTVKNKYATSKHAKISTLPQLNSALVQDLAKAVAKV

CN1CCCC(=O)N(C)CCNc2ncnc3c2/C(=C/Nc2cccc(c2)C1)C(=O)N3 [Compound 82] gave an IC50 (CDK1/CyclinB (h)) of over 10000 nM, an IC50 (AuroraB (h)) of over 10000 nM and an IC50 (GSK3β (h)) of 1050 nM. For the same molecule, the IC50 (PLK4 (h)) was 6170 nM.
Molecule CN1CCN(c2ccc3cc2CN(C)CCCCC(=O)N(C)CCNc2ncnc4c2/C(=C/N3)C(=O)N4)CC1 [Compound 92] has an IC50 (CDK1/CyclinB (h)) of over 10000 nM, an IC50 (AuroraB (h)) of over 10000 nM and an IC50 (GSK3β (h)) of 1480 nM. It also gave an IC50 (PLK4 (h)) of 1290 nM.
For CN1CCCCCCC(=O)N(C)CCNc2ncnc3c2/C(=C/Nc2cccc(c2)C1)C(=O)N3 [Compound 83], the IC50 (CDK1/CyclinB (h)) was over 10000 nM, the IC50 (AuroraB (h)) was over 10000 nM and the IC50 (GSK3β (h)) was 2190 nM. For the same molecule, the IC50 (PLK4 (h)) was 1660 nM.
Molecule CN1CCCC(=O)N(C)CCCNc2ncnc3c2/C(=C/Nc2cccc(c2)C1)C(=O)N3 [Compound 73] has an IC50 (CDK1/CyclinB (h)) of 1780 nM, an IC50 (AuroraB (h)) of over 10000 nM and an IC50 (GSK3β (h)) of 851 nM. The IC50 (PLK4 (h)) was 3720 nM.
CN1CCNc2ncnc3c2/C(=C/Nc2ccc(Cl)c(c2)OCCCC1=O)C(=O)N3 [Compound 60] showed an IC50 (CDK1/CyclinB (h)) of 229 nM, an IC50 (AuroraB (h)) of 891 nM and an IC50 (GSK3β (h)) of 263 nM. For the same molecule, the IC50 (PLK4 (h)) was 1740 nM.
In the case of CN1CCCCCC(=O)N(C)CCCNc2ncnc3c2/C(=C/Nc2cccc(c2)C1)C(=O)N3 [Compound 81], the IC50 (CDK1/CyclinB (h)) is reported as over 10000 nM, the IC50 (AuroraB (h)) is reported as over 10000 nM and the IC50 (GSK3β (h)) is reported as 2750 nM. The IC50 (PLK4 (h)) was 1070 nM.
CN1CCNc2ncnc3c2/C(=C/Nc2ccc(Cl)c(c2)OCCCCC1=O)C(=O)N3 [Compound 56] was tested, and the IC50 (CDK1/CyclinB (h)) was ~6760 nM and 6760 nM, the IC50 (AuroraB (h)) was 759 nM and the IC50 (GSK3β (h)) was 166 nM. For the same molecule, the IC50 (PLK4 (h)) was 3470 nM.
For COc1ccc2cc1OCCCCCCC(=O)N(C)CCCNc1ncnc3c1/C(=C/N2)C(=O)N3 [Compound 72], the IC50 (CDK1/CyclinB (h)) was over 10000 nM, the IC50 (AuroraB (h)) was 1910 nM and the IC50 (GSK3β (h)) was 575 nM. For the same molecule, the IC50 (PLK4 (h)) was 1450 nM.
Molecule COc1ccc2cc1CN(C)CCCCC(=O)N(C)CCNc1ncnc3c1/C(=C/N2)C(=O)N3 [Compound 75] has an IC50 (CDK1/CyclinB (h)) of 5370 nM, an IC50 (AuroraB (h)) of over 10000 nM and an IC50 (GSK3β (h)) of 562 nM. The IC50 (PLK4 (h)) was 5890 nM.
COc1cc2cc(c1OC)CN(C)CCCCC(=O)N(C)CCCNc1ncnc3c1/C(=C/N2)C(=O)N3 [Compound 95] gave an IC50 (CDK1/CyclinB (h)) of 1150 nM, an IC50 (AuroraB (h)) of over 10000 nM and an IC50 (GSK3β (h)) of 3160 nM. The IC50 (PLK4 (h)) was 2690 nM.
With CN1CCCNc2ncnc3c2/C(=C/Nc2ccc(Cl)c(c2)OCCCCCCC1=O)C(=O)N3 [Compound 65] the IC50 (CDK1/CyclinB (h)) was over 10000 nM, the IC50 (AuroraB (h)) was over 10000 nM and the IC50 (GSK3β (h)) was 1380 nM. For the same molecule, the IC50 (PLK4 (h)) was 8910 nM.
With CN1CCCC(=O)N(C)CCCNc2ncnc3c2/C(=C/Nc2ccc(N4CCOCC4)c(c2)C1)C(=O)N3 [Compound 7] the IC50 (CDK1/CyclinB (h)) was 1700 nM, the IC50 (AuroraB (h)) was over 10000 nM and the IC50 (GSK3β (h)) was 74.1 nM. The IC50 (PLK4 (h)) was 759 nM.
Work on CN1CCCCCCC(=O)N(C)CCCNc2ncnc3c2/C(=C/Nc2cccc(c2)C1)C(=O)N3 [Compound 74] yielded an IC50 (CDK1/CyclinB (h)) of over 10000 nM, an IC50 (AuroraB (h)) of over 10000 nM and an IC50 (GSK3β (h)) of over 10000 nM. The IC50 (PLK4 (h)) was 5620 nM.
COc1ccc2cc1CN(C)CCCCCCC(=O)N(C)CCCNc1ncnc3c1C(=CN2)C(=O)N3 (mixture of isomers) [Compound 68] was tested, and the “CDK1 pIC50” value (CDK1/CyclinB (h)) was under 5, the “AuroraB pIC50” value (AuroraB (h)) was under 5 and the “GSK3B pIC50” value (GSK3β (h)) was 5.04. The “PLK4 pIC50” value (PLK4 (h)) was 5.74.
In the case of CN1CCCNc2ncnc3c2C(=CNc2cccc(c2)OCCCCC1=O)C(=O)N3 (mixture of isomers) [Compound 70], the “CDK1 pIC50” value (CDK1/CyclinB (h)) is reported as 5.61, the “AuroraB pIC50” value (AuroraB (h)) is reported as 6.8 and the “GSK3B pIC50” value (GSK3β (h)) is reported as 7.28. For the same molecule, the “PLK4 pIC50” value (PLK4 (h)) was 6.75.
CN1CCCNc2ncnc3c2C(=CNc2cccc(c2)OCCCCCC1=O)C(=O)N3 (mixture of isomers) [Compound 71] was tested, and the “CDK1 pIC50” value (CDK1/CyclinB (h)) was 5.56, the “AuroraB pIC50” value (AuroraB (h)) was 6.15 and the “GSK3B pIC50” value (GSK3β (h)) was 7.21. The “PLK4 pIC50” value (PLK4 (h)) was 6.7.

Reference: US8338422B2, “Indolin-2-ones and aza-indolin-2-ones” (Janssen Pharmaceutica NV, priority 2007, dated 2012)
